Assay results as given in patent publication US20200253979A1, “THERAPEUTIC METHODS RELATING TO HSP90 INHIBITORS” (AI Therapeutics, Inc., priority 2017, published 2020).
Read-outs that look alike come from different tables or passages of the source.

Tests used:
PD-L1 on THP-1 cells = test: PD-L1 expression on THP-1 cells by flow cytometry; type: cell-based; conditions: IFNγ overnight with MPC-0767 1 μM or 2 uM
From the text: FIG. 29A-D: MPC-0767 repression of PD-L1 expression increases T cell activation. Bar graphs show activation of Jurkat reporter cells with anti-CD3 (A) and PD-L1-dependent inhibition of T cell activation after IFNγ treatment (B). Bars in A&B represent the mean +/− SD of triplicate wells and are representative of three independent experiments. […] Bars in C&D represent the mean +/− SD of three independent experiments.
We next determined whether MPC-0767 reduction of PD-L1 could increase T cell stimulation similar to anti-PD-L1 blocking antibodies. THP-1 cells were treated overnight with IFNγ in the presence or absence of MPC-0767 (1 μM or 2 uM). THP-1 cells were washed and a portion saved for flow cytometry analysis of PD-L1 expression. The remaining cells were incubated with Jurkat reporter cells and anti-CD3 (10 ng/ml) for 6 hours.

MOLM-14 cells (FLT3-ITD) = test: CellTiter-Glo cell viability (single agent and combination); type: cell-based; conditions: 72 hours; for IC50: Homo sapiens, MOLM-14, 72 h, read-out: EC50 (cell viability)
Description: HS-5 is a human marrow stromal cell line that secretes various growth factors sufficient to support hematopoietic progenitor growth (Roecklein et al., Blood, 1995) which thus mimics stromal conditions.
Three cell lines which harbor FLT3-ITD were used for the drug combination studies (MV-4-11, MOLM-13, and MOLM-14).
Cells were treated with the drugs (single agent or combination) for 72 hours. Drug combination activity was determined by first measuring cell viability with CellTiter-Glo®, followed by the calculation of the EC50 corresponding to single agent activity, using the R DRC package (R Core Team, 2017). The combination index (CI) values were computed using the Chou-Talalay method (Chou T, Cancer Research., 2010 70(2): 440-6.), based on the viability of each drug alone and in combination, across all concentrations tested. In brief, CI was defined as: […]
Loss of function mutations of KDM6A are observed in FLT3-ITD AML (Garg et al., 2015 Blood 126 (22):2491-501). […] To therapeutically exploit this finding, we hypothesized that inhibiting EZH2, the histone H3K27 methyltransferase that functionally opposes KDM6A, would enhance sensitivity to MPC-0767. To test this hypothesis, a FLT3-ITD cell line (MV-4-11) was used and treated with either of the two clinical stage EZH2 inhibitors, EPZ-6438 and CPI-1205, at 8 different concentrations for 4 days. Following this time, cells were counted, reseeded and treated with 8 concentrations of EZH2 inhibitor alone, 8 concentrations of MPC-0767 alone, or the combination of the two (64 total combinations).

[1] = tested on: cell surface FLT3 in MOLM-13 cells; test: Cell surface FLT3 by flow cytometry; type: cell-based, human; conditions: 24 hours
Description: To determine whether MPC-0767 can promote the degradation of FLT3-ITD and abolish downstream signaling, MV-4-11 and MOLM-13 cells were treated with vehicle or MPC-0767 (1 μM) for 24 hours. Cells were harvested for flow cytometry to assess cell surface FLT3 protein abundance. In addition, the measurement of a key phosphorylation site of S6 (phospho-S6) was used as a marker for oncogenic FLT3-ITD signaling (Zimmerman et al., Blood. 2013 122(22): 3607-3615). Indeed, in both MV-4-11 and MOLM-13 cells treated with MPC-0767 there was a >65% reduction in cell surface FLT3 (FIGS. 10A and 10B, respectively) and >70% reduction in phospho-S6 (FIGS. 10C and 10D, respectively).
We next explored whether the synergistic activity of MPC-0767 and ATO was due to a more complete abrogation of FLT3-ITD oncogenic signaling. […] After this time cells were harvested for the assessment of cell surface FLT3 expression by flow cytometry. To additionally measure the effects of abrogating FLT3, we assessed phospho-ERK (pERK) and phospho-S6 (pS6), as these are two known downstream effectors.

OCI-AML2 AML cell line = test: In vitro T-cell-mediated killing assay (active caspase-3); type: cell-based; conditions: MPC-0767 2 μM overnight, then pp65 enriched CD8+ T cells 4 hours
Description: The ability of MPC-0767 to increase T cell killing was determined in an in vitro T-cell-mediated killing assay. The OCI-AML2 AML cell line was labeled with the cell staining dye CFSE and treated overnight with MPC-0767 (2 μM) and human cytomegalovirus pp65495-503 peptide. […] After 4 hours of co-culture, cells were harvested, fixed, permeabilized, and stained for the active form of caspase-3 as a direct read-out of apoptotic cell death.
The CI is a quantitative measure used to determine whether the combined effect of a drug pair is synergistic, additive, or antagonistic. The CI is calculated as CI=(E1+E2)/E12, where E12 is a normalized biological response (e.g., % Caspase-3+ cells) for the combination of Drug A and Drug B, and E1 and E2 are the response measured for each single drug treatment, respectively. CI values less than 1 indicate synergy, with the magnitude of the effect indicated by how much less than 1 the synergy score is. A more detailed mathematical treatment of this relationship is described in Shin et al. 2018.

[2] = tested on: PD-L1 on tumor infiltrating leukocytes (CD45+, CD3−); test: PD-L1 on tumor infiltrating leukocytes in MC38 tumors; type: in vivo, mouse; conditions: 150 mg/kg QD×7
Description: To test if MPC-0767 may induce an anti-tumor immune response in addition to direct cytotoxic activity, down regulation of PD-Ll and the effector/regulatory T-cell ratio was measured in the same MC38 syngeneic model. On day 21, when the average tumor volume was 372 mm^3 in size, a second group of mice (n=6) was treated with 150 mg/kg MPC-0767 QD×7. One day post the last dose (day 28 post inoculation) tumors were harvested from the vehicle and 150 mg/kg MPC-0767 QD×7 group. Tumor infiltrating leukocytes (CD45^+, CD3^−) within the dissociated tumors were analyzed for PD-L1 expression by flow cytometry.

[3] = tested on: MV-4-11 cell line (AML FLT3-ITD) xenograft; test: Subcutaneous MV-4-11 xenograft study; conditions: oral, 200 mg/kg QD×2 days then 150 mg/kg QD×15 days
Description: Each mouse was inoculated subcutaneously in the right flank with 5×10^6 tumor cells in 0.1 ml PBS/Matrigel (1:1). When the mean tumor volume reached 91 mm^3 in size, mice were randomized into 2 groups of 10. […] Tumor measurements (caliper) were taken on the indicated days. […] Student t-test was used to evaluate the statistical significance of the difference between these groups P<0.0001.

TUR cells = test: CellTiter-Glo cell viability (single agent and combination); type: cell-based; conditions: 72 h
[4] = tested on: BaF3 cells harboring FLT3-ITD F691L; test: CellTiter-Glo cell viability; type: cell-based, murine; conditions: Mus musculus; BaF3 FLT3-ITD-F691L, 72 hours
Description: EC50 values were calculated using equation 1 (as described above).

## C[C@H](N)C(=O)O[C@@H](C)C(=O)N1CCC(CCn2c(Sc3cc4c(cc3Br)OCO4)nc3c(N)ncnc32)CC1 [MPC-0767]
PD-L1 on THP-1 cells
  PD-L1 expression on THP-1 cells: dose-dependently reduced PD-L1 expression
MOLM-14 cells (FLT3-ITD); MOLM-14, non-stromal media
  IC50: 423 nM
MOLM-14 cells (FLT3-ITD); MOLM-14, stromal media (HS-5 conditioned)
  IC50: 627 nM
MOLM-14 cells (FLT3-ITD); MOLM-14, MPC-0767 1 μM
  viability of KDM6A sgRNA cells vs non-targeting sgRNA: conferred resistance to MPC-0767
[1]; MOLM-13, 1 μM
  reduction in cell surface FLT3: > 65%
[1]; MOLM-13, MPC-0767 800 nM, ATO 625 nM or combination
  FLT3 level (cell surface): reduced
OCI-AML2 AML cell line
  Combination Index (CI) for apoptotic (active caspase-3+) cells: 0.53
[2]
  PD-L1 expression on tumor infiltrating leukocytes: significant reduction of PD-L1
[3]
  effect on body weight: without significant effects on body weight
  tumor regression: 84%
[3]; n=10
  complete tumor regression (animals): 5/10 and Five
TUR cells
  EC50: 550 nM
  MPC-0767 Sensitivity: Sensitive (cell lines having EC50 values below 1 μM were considered to be sensitive)
[4]
  EC50: 391 nM
